From US8003595B2, “Amino acid sequences facilitating penetration of a substance of interest into cells and/or cell nuclei” (Cellectis, priority 2000, dated 2011)
Like-named read-outs stand apart in the source and are kept apart here. Marks after values point to notes of the source that are not given here.

Experiments:
cells = experiment: Penetration of biotinylated peptides inside cells (microscopy, S-PO coloration); format: cell-based; details: biotinylated peptides 50 to 6 μg/ml, 1-18 hours, revealed with S-PO
Method: The cells are cultivated in the presence of the different peptides carrying, on the N-terminal side, biotin in decreasing concentrations (50 to 6 μg/ml) in the culture medium for variable times (1-18 hours).
At the end of the culture, the cells are washed three times with PBS (0.15 M NaCl buffered with 0.01 M potassium phosphate buffer pH 7.4) then fixed 15 minutes in ethanol at −20° C. The penetration of the peptide is evaluated after incubation for 30 minutes with streptavidin conjugated with peroxidase (abbreviated S-PO for streptavidin-peroxidase). Then, the S-PO is eliminated, and the cells are washed. […] With the other peptides, positive colorations, but of variable intensity, were noted.

H1299 cells [1] = experiment: Internalization of biotinylated peptide/S-PO complexes; format: cell-based, human
Method: A biotinylated/S-PO peptide or biotinylated/A-PO complex (A-PO for avidin-peroxidase) is prepared extemporaneously in two ways:
1) either in a peptide: S-PO or A-PO molar ratio of 4:1 (for example, 1.4 μg of peptide with a molecular weight of 3500 to 10 μg of S-PO; the weight of S-PO used varies depending on the peptides since their molecular weights are different).
2) or in a peptide: S-PO or A-PO molar ratio of 25:1 (for example 1.7 μg of peptide with a molecular weight of 3500 to 1 μg of S-PO).
The complexes are prepared by incubating the biotinylated peptide with S-PO or A-PO in PBS in a volume of 5 to 10 μl for 15 minutes at laboratory temperature. They are then diluted in 1 ml of complete culture medium, filtered on a 0.2 micron membrane and incubated with the cells for 4 hours. The cells are then washed three times with PBS.
To study the penetration of the complexes under a microscope, the cells are fixed as before for 15 minutes in ethanol at −20° C., they are washed with PBS, and the activity of the internalized peroxidase is shown by diaminobenzidine in the presence of H2O2. To measure the quantity of peptide/S-PO or A-PO complexes internalized, the cells are trypsinized, transferred into microtubes and counted. They are washed twice by centrifugation, then the residue is suspended in 200 μl of lysis buffer (Tris buffer, 0.1 M, pH8, 0.5% Nonidet). After 15 minutes, the peroxidase contained in the lysis buffer is dosed onto 96-well plates with ortho-dianisidine and H2O2 by comparison with a standard curve for S-PO. The reading is taken at 450 nm. The quantity contained in the different samples is expressed in picograms (pg) per 10^4 cells.
Table 7 below reports the results of evaluating the influence of SEQ ID NO: 1 on the penetration of peptides coupled to SEQ ID NO: 1 into H1299 cells, where
Concentration a: 25 peptides to one molecule of S-PO (1 μg),
Concentration b: 4 peptides to one molecule of S-PO (10 μg).

[2] = ELISA fixation of biotinylated peptides on sensitized plates; format: binding; details: for Kd: read-out: avidity (Kd), quantity of peptides necessary to obtain 50% fixation, Heparin; for EC50: ELISA plates sensitized with heparin, Table 4, read-out: avidity: quantity of peptides necessary to obtain 50% fixation, Heparin
Method: (§1) The capacity of peptides SEQ ID NO: 1 to 21 to attach themselves to DNA and heparin is evaluated on ELISA plates sensitized with DNA or heparin. Dilutions of biotinylated peptides are deposited on the plates and their fixation is shown using streptavidin conjugated with peroxidase. […] The avidity of each of the peptides for DNA or heparin is evaluated by the quantity (×10^−6 M) of peptides necessary to obtain 50% fixation.

H1299 cells [3] = experiment: Internalization of covalent peptide-peroxidase conjugates; format: cell-based, human; details: for quantity of peptide internalized: 2 hours
Method: To evaluate more directly the penetration of the peptides, avoiding the avidin-peroxidase bias, some of the peptides in sequences SEQ ID NO: 25 to 48 were conjugated covalently with cysteine in the C-terminal position of the peptide to peroxidase. The peptides were coupled with peroxidase in the following way:
One mg of peroxidase activated with maleimide (Sigma) in 100 μl of sodium phosphate buffer, NaCl 0.15 M, EDTA 5 mM, had 1 mg of peptide added to it. After 2 hours at laboratory temperature, β-mercaptoethanol is added to a final concentration of 1.5 mM for 15 minutes. The uncoupled peptide is eliminated by centrifugation on ultrafiltration membranes (cut-off threshold=30,000 Daltons, Sartorius), followed by three washings in sodium phosphate buffer 0.1 M, pH 7.4 containing 0.15 M NaCl.
The H1299 cells are incubated for 2 hours with the conjugates at increasing concentrations of peptide-peroxidase in the culture medium, then washed with PBS. The cells are lysed and the quantity of peptide internalized is evaluated by the dosage of peroxidase in the lysate of the cells with reference to a curve established with peptide-peroxidase.
The quantity of peptide internalized (pg/10^3 cells), depending on the concentrations of conjugates in the culture medium, is shown in Table 8 below.
It appears that the higher the concentration of peptide-peroxidase conjugate in the culture medium, the more the quantity internalized increases. To compare the penetration of the conjugates by cell type, the cells from different lines were incubated with 0.2 μg/ml of peptide-peroxidase conjugate for 2 hours, and the quantity of peroxidase dosed in the lysates. Table 9 and Table 9B below give the results expressed in pg/10^3 cells. The quantity of each peptide internalized in the different lines generally varies only from single to double.

DNA = experiment: ELISA fixation of biotinylated peptides on sensitized plates; format: binding; details: ELISA plates sensitized with DNA; read-out: avidity: quantity of peptides necessary to obtain 50% fixation, DNA
Method: as §1

[4] = as above; format: binding; details: for EC50: Table 4, read-out: avidity: quantity of peptides necessary to obtain 50% fixation, Chondroitin A; for Kd: read-out: avidity (Kd), quantity of peptides necessary to obtain 50% fixation, Chondroitin A, Table 5
[5] = as above; format: binding; details: for EC50: Table 4, read-out: avidity: quantity of peptides necessary to obtain 50% fixation, Chondroitin B; for Kd: read-out: avidity (Kd), quantity of peptides necessary to obtain 50% fixation, Chondroitin B, Table 5
[6] = as above; format: binding; details: for EC50: Table 4, read-out: avidity: quantity of peptides necessary to obtain 50% fixation, Chondroitin C; for Kd: read-out: avidity (Kd), quantity of peptides necessary to obtain 50% fixation, Chondroitin C, Table 5
[7] = Conc. a: 25 peptides to one molecule of S-PO (1 μg)
[8] = Conc. b: 4 peptides to one molecule of S-PO (10 μg)

Substance | EC50 [2] | EC50 (DNA) | EC50 [4] | EC50 [5] | EC50 [6] | also measured
SEQ ID NO: 9: Peptide containing SEQ ID NO: 1 and SEQ ID NO: 8 (VKRGLKLVRRSGRVVVPAAPRNRD; listed as Homo sapiens) |  |  |  |  |  | intracellular cytochemical coloration (cells): intense coloration; S-PO internalized (H1299 cells [1]; [7]): 340 pg/10^4 cells; S-PO internalized (H1299 cells [1]; [8]): 8280 pg/10^4 cells
RKKRRRGDRKKRRRGD [SEQ ID NO: 28] |  |  |  |  |  | avidity (Kd), quantity of peptides necessary to obtain 50% fixation, Heparin ([2]; Table 5): lost its affinity for heparin; Kd ([2]; Table 5): 407 nM; percentage of quantity of peroxidase internalized compared to quantity deposited (H1299 cells [3]; 0.01 μg/ml): (0.006)* %; percentage of quantity of peroxidase internalized compared to quantity deposited (H1299 cells [3]; 0.1 μg/ml): (1.6) %; percentage of quantity of peroxidase internalized compared to quantity deposited (H1299 cells [3]; 0.5 μg/ml): (7.6) %; percentage of quantity of peroxidase internalized compared to quantity deposited (H1299 cells [3]; 1 μg/ml): (8.8) %; quantity of peptide internalized (H1299 cells [3]; peptide-peroxidase 0.01 μg/ml): 0.006 pg/10^3 cells; quantity of peptide internalized (H1299 cells [3]; peptide-peroxidase 0.1 μg/ml): 1.7 pg/10^3 cells; quantity of peptide internalized (H1299 cells [3]; peptide-peroxidase 0.5 μg/ml): 37.9 pg/10^3 cells; quantity of peptide internalized (H1299 cells [3]; peptide-peroxidase 1 μg/ml): 8860 pg/10^3 cells
SEQ ID NO: 4: Peptide corresponding to the hypervariable area CD3 of the anti-DNA monoclonal murine antibody F4.1 (RQKYNKRAMDY; Mus musculus x Rattus norvegicus) |  |  |  |  |  | intracellular cytochemical coloration (cells): do not give any positive intracellular cytochemical coloration; S-PO internalized (H1299 cells [1]; [7]): 2 pg/10^4 cells; S-PO internalized (H1299 cells [1]; [8]): 280 pg/10^4 cells
VRRSGRVVVPAAPRNRD [compound 8] | > 150000 nM | > 150000 nM | > 150000 nM | > 150000 nM | > 150000 nM | 
GRPRESGKKRKRKRLKP [compound 21] | 70 nM | 200 nM | 120 nM | 120 nM | 120 nM | 
VKRGLKLVRRSGRVVVPAAPRNRD [compound 9] | 3700 nM | 3700 nM | 17 nM | 500 nM | > 8000 nM | 
SEQ ID NO: 16: inclusion, in position 13-19, of SEQ ID NO: 1 in SEQ ID NO: 15 (RHVRPRVTRMDVVKRGLKLRHVRPRVTRMDV; listed as Homo sapiens) |  |  |  |  |  | S-PO internalized (H1299 cells [1]; [7]): 430 pg/10^4 cells; S-PO internalized (H1299 cells [1]; [8]): 5220 pg/10^4 cells
VKRGLKL [compound 1] | > 100000 nM | > 100000 nM | > 100000 nM | > 100000 nM | > 100000 nM | 
RHVRPRVTRMDVVKRGLKLRHVRPRVTRMDV [compound 16] | 24 nM | 19 nM | 12 nM | 9 nM | 2 nM | 
VKRGLKLTYYSDTVKGRFTRQYNKRA [compound 7] | 50 nM | 50 nM | 60 nM | 40 nM | 60 nM | 
LRKRLLRD [compound 17] | > 150000 nM | > 150000 nM | > 150000 nM | > 150000 nM | > 150000 nM | 
LRRERQSRLRRERSQSR [SEQ ID NO: 39] |  |  |  |  |  | Kd ([2]; Table 5): 100 nM; Kd [4]: 100 nM; Kd [5]: 100 nM; Kd [6]: 100 nM
SEQ ID NO: 12: Peptide containing the NLS sequence of cells 3T3 and SEQ ID NO: 6 (NVKKPKLTYYSDTVKGRFTRQKYNKRA; Mus musculus x Rattus norvegicus) |  |  |  |  |  | intracellular cytochemical coloration (cells): do not give any positive intracellular cytochemical coloration
VKRGLKLVKRGLKLVKRGLKL [compound 3] | 41 nM | 50 nM | 37 nM | 41 nM | 35 nM | 
TYYSDTVKGRFTRQKYNKRA [compound 6] | 160 nM | 190 nM | 240 nM | 250 nM | 220 nM | 
RKGFYKRKQCKP [SEQ ID NO: 20] |  |  |  |  |  | Kd ([2]; Table 5): 70 nM; Kd [4]: 60 nM; Kd [5]: 40 nM; Kd [6]: 100 nM; S-PO internalized (H1299 cells [1]; peptide: S-PO complexes of 4:1, peptide concentration of 1 μg): 431 pg/10^4 cells
VKRGLKLRQKYNKRAMDY [compound 5] | 110 nM | 110 nM | 130 nM | 110 nM | 110 nM | 
VKRGLKLVKRGLKL [compound 2] | 760 nM | 2200 nM | 550 nM | 600 nM | 550 nM | 
SEQ ID NO: 11: SEQ ID NO: 1 and CDR3 of the human anti-DNA monoclonal antibody RT72 (VKRGLKLGYYDFWSGPGKN; listed as Homo sapiens) |  |  |  |  |  | intracellular cytochemical coloration (cells): do not give any positive intracellular cytochemical coloration
RGVRPRVTRMDVRHVRPRVTRMDV [compound 15] | > 30000 nM | 3000 nM | 200 nM | 4000 nM | 5000 nM | 
RQKYNKRAMDY [compound 4] | 5000 nM | 4000 nM | 5600 nM | 6200 nM | 5000 nM | 
SEQ ID NO: 15: twice the CDR3 region peptide of anti-DNA human monoclonal antibody NE-1 (RGVRPRVTRMDVRHVRPRVTRMDV; listed as Homo sapiens) |  |  |  |  |  | S-PO internalized (H1299 cells [1]; [7]): 250 pg/10^4 cells; S-PO internalized (H1299 cells [1]; [8]): 6670 pg/10^4 cells
KSRKKSRK [compound 19] | > 74000 nM | > 74000 nM | > 74000 nM | > 74000 nM | > 74000 nM | 
RKGFYKRKQCKP [compound 20] | 70 nM | 90 nM | 60 nM | 40 nM | 100 nM | 
KSRK [compound 18] | > 134 nM | > 134000 nM | > 134000 nM | > 134000 nM | > 134000 nM | 
